Experimental data reported in US9073880B2, “2-(2-phenylethenyl) 1,3-benzodiazepine derivatives useful for the treatment of cancer” (Yissum Research Development Company of the Hebrew …, priority 2010, dated 2015).

Experiments:
[1] = system: human osteosarcoma Saos-2 cells; test: Cell proliferation, Saos-2 (Example 4); type: cell-based; conditions: Saos-2, osteosarcoma, compound in 2-hydroxypropyl-β-cyclodextrin
Description: (§1) Human ovary cancer A2780 cells lines were seeded at a density of 5000 cells/well, human melanoma A375 cells were plated at a density of 2,500 cells/well, human colon carcinoma HCT15 cells were plated at a density of 3,000 cells/well, human prostate carcinoma PC3 cells were plated at a density of 1,500 cells/well, human breast carcinoma MCF7 cells were plated at a density of 5,000 cells/well, human breast carcinoma MDA MB 468 cells were plated at a density of 6,000 cells/well, human myeloma U266, RPMI8226 and CAG cells were plated at a density of 10,000 cells/well. All cells were plated in 96-well plates in 90 μl growth medium containing 10% FCS, 100 units/ml penicillin and 100 μg/ml streptomycin. Compound 3 was added a day later in […] of 1% DMSO in DDW to obtain final concentrations of 0, 0.1, 0.3, 1, 3, and 10 μM. The final concentration of DMSO (0.1% DMSO) was kept constant in all samples. Following exposure of the cells to compound 3 for 72 hours at 37° C., adhered cells were fixed in 0.5% gluteraldehyde in medium for 10 min, washed three times with DDW, once with 0.1M sodium borate buffer pH 8.5 and stained with 1% methylene blue dissolved in 0.1M borate buffer solution for 60 min. Excess dye was washed out and cell-bound dye was eluted with 200 μl/well of 0.1M HCl. The optical density values were read at 630 nm in ELISA plate reader. Non-adhered cells were exposed to WST-1 reagent for 5 hours following 72 hours treatment with the inhibitors, and optical density values were read at 630 nm in ELISA plate reader. The data was analyzed in Microsoft Excel, using the vehicle control as 100% proliferation. The assays were performed in triplicates. The values of IC50 were derived from the dose-dependent growth curves obtained.
(§2) Cell proliferation assay was performed as described in Example 2. […]

[2] = system: human myeloma RPMI8226 cells; test: Cell proliferation, RPMI8226 (Example 2); type: cell-based; conditions: RPMI-8226, RPMI8226, multiple myeloma, 72 hours, 0.1% DMSO, WST-1
Description: as §1, with “Following exposure of the cells to compound 3 for 72 hours at 37° C., adhered cells were fixed in 0.5% gluteraldehyde in medium for 10 min, washed three times with DDW, once with 0.1M sodium borate buffer pH 8.5 and stained with 1% methylene blue dissolved in 0.1M borate buffer solution for 60 min. Excess dye was washed out and cell-bound dye was eluted with 200 μl/well of 0.1M HCl.” left out, “The assays were performed in triplicates. The values of IC50 were derived from the dose-dependent growth curves obtained.” left out

[3] = system: human multiple myeloma U266 cells; test: Cell proliferation, U266 (Example 4); type: cell-based; conditions: U-266, compound in 2-hydroxypropyl-β-cyclodextrin
Description: as §1, with “Following exposure of the cells to compound 3 for 72 hours at 37° C., adhered cells were fixed in 0.5% gluteraldehyde in medium for 10 min, washed three times with DDW, once with 0.1M sodium borate buffer pH 8.5 and stained with 1% methylene blue dissolved in 0.1M borate buffer solution for 60 min. Excess dye was washed out and cell-bound dye was eluted with 200 μl/well of 0.1M HCl.” left out, “The assays were performed in triplicates. The values of IC50 were derived from the dose-dependent growth curves obtained.” left out

[4] = system: human breast carcinoma MDA MB 468 cells; test: Cell proliferation, MDA MB 468 (Example 2); type: cell-based; conditions: MDA-468, breast cancer, 72 hours, 0.1% DMSO
Description: as §1, with “Following exposure of the cells to compound 3 for 72 hours at 37° C., adhered cells were fixed in 0.5% gluteraldehyde in medium for 10 min, washed three times with DDW, once with 0.1M sodium borate buffer pH 8.5 and stained with 1% methylene blue dissolved in 0.1M borate buffer solution for 60 min. Excess dye was washed out and cell-bound dye was eluted with 200 μl/well of 0.1M HCl.” left out, “The assays were performed in triplicates. The values of IC50 were derived from the dose-dependent growth curves obtained.” left out

[5] = system: human multiple myeloma MM1S cells; test: Cell proliferation, MM1S (Example 4); type: cell-based; conditions: MM1.S, compound in 2-hydroxypropyl-β-cyclodextrin
Description: as §1
Cell proliferation assay was performed as described in Example 2. The following cell line were plated in 96-well plates in 90 μl growth medium containing 10% FCS, 100 units/ml penicillin and 100 μg/ml streptomycin: human ovary cancer A2780 cells (4500 cells/well), human melanoma A375 (1500 cells/well) and YUMAC (2500 cells/well) cells, human colon carcinoma HCT15 (3000 cells/well) and HCT116 (2000 cells/well) cells, human prostate carcinoma PC3 (3000 cells/well), PC3MM2 (3500 cells/well) and DU145 (300 cells/well) cells, human hepatocarcinoma HepG2 (3000 cells/well), human Ewing sarcoma SK-ES-1 (4,500 cells/well), human glioblastoma U138MG (2,000 cells/well), human breast cancer T47D (4000 cells/well) and MDA-MB-468 (6000 cells/well) cells, human small cell lung carcinoma NCI-H1975 (5000 cells/well) cells, human osteosarcoma Saos-2 (5000 cells/well) cells, human pancreatic cancer ASPC (2500 cells/well) cells, human bladder carcinoma T24P (1000 cells/well) cells, human gastric cancer NCI-N87 (5000 cells/well) cells, human lymphoma KARPAS (5,000 cells/well) cells, human leukemia K562 (5,000 cells/well) cells and human multiple myeloma MM1S (10,000 cells/well), U266 (10,000 cells/well) and CAG (5,000 cells/well). Compounds 2-5 and 7-8 were added a day later in 10 μl of 0.7% 2-hydroxypropyl-β-cyclodextrin to obtain final concentrations of 0, 0.1, 0.3, 1, 3 and 10 μM.
Compounds 2-5 and 7-8 of the present invention were tested for their inhibitory potential in cell proliferation assay. Human ovary cancer A2780 cells, human melanoma A375 and YUMAC cells, human colon carcinoma HCT15 and HCT116 cells, human prostate carcinoma PC3, PC3MM2 and DU145 cells, human hepatocarcinoma HepG2 cells, human Ewing sarcoma SK-ES-1 cells, human glioblastoma U138MG cells, human breast cancer T47D and MDA-MB-468 cells, human small cell lung carcinoma NCI-H1975 cells, human osteosarcoma Saos-2 cells, human pancreatic cancer ASPC cells, human bladder cancer T24P cells, human gastric cancer cells, human lymphoma KARPAS cells, human leukemia K562 cells, and human multiple myeloma MM1S, CAG and U266 cells, were exposed to increasing concentrations of compounds 2-5 and 7-8. […]

[6] = system: human ovary A2780 tumor cells; test: Survival of nude mice bearing intraperitoneal human ovarian A2780 tumors; type: in vivo; conditions: for median survival time: IV, control 28 days
Description: In order to determine the effect of the compounds of the present invention on the growth and spread of tumors in-vivo, the compounds were administered to nude mice bearing human ovarian cancer. […] A model of peritoneal carcinomatosis formation, involving intraperitoneal administration of human ovary A2780 tumor cells, was used.
Two million human ovarian A2780 cells were injected to the peritoneum of 4-5 weeks old female nude mice. A week later, treatments with compound 3 or vehicle were initiated. Compound 3 was administered IV, daily at a dose of 3 mg/kg or weekly at a dose of 12 mg/kg for the time periods indicated in FIG. 7. The control group was weekly administered (IV) with the vehicle (20% 2-hydroxypropyl-b-cyclodextrin). Each group included 10 mice.

[7] = system: human gastric cancer NCI-N87 cells; test: Cell proliferation, NCI-N87 (Example 4); type: cell-based; conditions: compound in 2-hydroxypropyl-β-cyclodextrin
Description: as §1, §2

Compound | IC50 [1] [µM] | IC50 [2] [µM] | IC50 [3] [µM] | IC50 [4] [µM] | IC50 [5] [µM] | median survival time compared to Cisplatin and Sunitinib ([6]; 50 mg/kg daily IV vs Cisplatin 3 mg/kg ip 3 times a week for two weeks and Sunitinib 40 mg/kg daily PO, data not shown) | median survival time ([6]; daily, 3 mg/kg, FIG. 7) | median survival time ([6]; weekly, 12 mg/kg, FIG. 7) | survival compared to control mice ([6]; intravenous treatment, 3 mg/kg daily or 12 mg/kg weekly, FIG. 7) | IC50 [7] [µM]
O=c1c(O)cc2cnc(/C=C/c3cc(O)c(O)c(Br)c3)sc-2c1O [Compound 3] | 3.1 | 2 | 0.7 | 3.8 | 0.5 | preferable median survival time | over 81 days | over 81 days | dramatically increased survival | 4.5
O=c1c(O)cc2cnc(/C=C/c3ccc(O)c(O)c3Br)sc-2c1O [Compound 5] | 2.8 | – | – | – | 0.6 | – | – | – | – | 4
